Measured values as given in publication PMC11992225, “Antibacterial compounds against non-growing and intracellular bacteria” (npj Antimicrobials and Resistance, 2025).

Tests used:
TC7 cells = experiment: TC7 cell viability upon drug exposure, MTS assay; format: cell-based; settings: at the MIC concentrations, 12 h, no bacteria
Experimental: TC7 cells were grown to confluence in transparent 96-well cell culture plates (TPP) in the same cell culture medium used for the in vitro infection assay. Just prior to the experiment, the medium was discarded, and the cells were washed twice with sterile PBS to remove any traces of medium or dead cells. […] The plate was incubated at 37 °C in a CO2 incubator for 12 h, under the same conditions as the infection assay.
The 3-(4,5-dimethylthiazol-2-yl)-5-(3-carboxymethoxyphenyl)-2-(4-sulfophenyl)-2H-tetrazolium (MTS) assay was performed using the CellTiter 96® AQueous One Solution Cell Proliferation Assay kit (Promega), according to the manufacturer’s instructions. Briefly, 20 μl of CellTiter 96 AQueous One Solution Reagent was added to each well, and the plate was incubated for 2 h at 37 °C in a CO2 incubator. The OD490 of the samples was measured using a Spark multimode plate reader (Tecan). The raw values were normalized to the control wells incubated with infection buffer only. The experiment was performed in duplicate.

[1] = test system: non-growing P. aeruginosa; experiment: Time-dependent effects of drug treatment on regrowth, P. aeruginosa; format: cell-based, Pseudomonas aeruginosa; settings: 10 µM, OD600 8 h after dilution
Experimental: (§1) For screening and concentration-dependent characterization of the hit compounds, we used a 24-h incubation to capture their effects, although the actual onset of their activity may occur much sooner. To assess the speed of action, we treated stationary-phase cultures of three organisms with compounds that had previously shown a strong regrowth delay at 10 µM. We selected compounds that, in earlier tests, strongly delayed regrowth, such that diluted cultures remained below an OD600 of 0.12 (indicating no growth) after 6 h for UPEC or 8 h for P. aeruginosa and S. aureus in drug-free medium.
(§2) We collected samples at different times during the 24-h incubation, diluted them 2500-fold, and measured the OD600 after 6 or 8 h of further incubation, respectively. […] Rifampicin acts quickly against non-growing S. aureus, while the effects of the other compounds increase gradually during incubation but are already apparent within the first hour of treatment.
Bacteria were cultivated in 1:4 diluted CA-MHB (40 mM HEPES, pH 7.4) for 24 h. Aliquots were dispensed into a 96-well plate, and compounds were added at a 10 µM concentration. Samples were collected at designated time points, diluted 2500-fold as described for the dilution-regrowth assay, and incubated in standing plates within a humid box at 37 °C. The OD600 of the samples was measured to assess regrowth using a microplate reader (BioTek Synergy H1) after 6 h for UPEC and 8 h for P. aeruginosa and S. aureus. The experiment was performed in triplicates.

[2] = test system: SOS response in UPEC CFT073; experiment: SOS response induction analysis, pAED2 cda' promoter mScarlet-I reporter; format: cell-based, Escherichia coli; settings: for induction of the SOS response in growing UPEC cultures / growth inhibition of growing UPEC: 20 μM; for induction of the SOS response in growing UPEC cultures: 6 h, MMC, BLE, ECH in 1:4 CA-MHB pH 7.4, PLI, SAT, EVO in LPM pH 5.5; for growth inhibition of growing UPEC: LPM pH 5.5, Fig. S7C,D
Experimental: Since we aimed to test SOS induction in non-growing cultures, it was essential to use a reporter with no leaky expression in the stationary phase. Therefore, we constructed the plasmid pAED2, based on the low copy-number plasmid pSC101, which contains the cda’ promoter in front of the mScarlet-I-encoding reporter gene.
Overnight cultures of CFT073 harboring a reporter plasmid were grown in 3 ml of LB supplemented with 100 µg/ml carbenicillin (Cb), then diluted 1:100 into the medium used for testing. For validation of the pANO1::cda’ reporter, an overnight culture was diluted into CA-MHB (supplemented with 40 mM HEPES, pH 7.4, and 100 µg/ml Cb) and grown to an OD600 ≈ 0.5 at 37 °C with shaking at 200 rpm in an Erlenmeyer flask. […] Empty wells were filled with water. […] The experiment was performed in triplicate.
For analysis of the SOS induction by anti-cancer compounds, the overnight cultures were diluted either into 1:4 diluted CA-MHB (40 mM HEPES, pH 7.4) or LPM (30 mM MES, pH 5.5) that were supplemented with 100 µg/ml Cb. For analysis of the effect on growing bacteria, the cultures were incubated at 37 °C with shaking at 200 rpm in Erlenmeyer flasks for 90 min, to an OD600 ≈ 0.5. Then, 180 μl aliquots were transferred to 96-well plates, and 20 μl of the 200 μM drug solution was added to achieve a final concentration of 20 μM. The plates were incubated in a microplate reader (BioTek Synergy H1) at 37 °C with continuous shaking for 6 h. OD600 and mScarlet fluorescence were recorded throughout the incubation.
For analysis of the effect of anti-cancer compounds on stationary phase- and regrowing bacteria, the cultures were incubated for 24 h at 37 °C with shaking at 200 rpm in Erlenmeyer flasks. […] The samples were incubated for 24 h at 37 °C in standing 1.5 ml tubes. Before and after the drug treatment, 25 μl aliquots were taken and diluted by mixing with 175 μl PBS. OD600 and mScarlet fluorescence were recorded using a microplate reader (BioTek Synergy H1).
After the treatment, stationary-phase bacteria were harvested by centrifugation at 5000 × g for 5 min at 20 °C, washed twice with PBS, and resuspended in 475 μl PBS.

non-growing S. aureus = experiment: Time-dependent effects of drug treatment on regrowth, S. aureus; format: cell-based, Staphylococcus aureus; settings: 10 µM, OD600 8 h after dilution
Experimental: as §1, §2
(§3) Bacteria were cultivated in 1:4 diluted CA-MHB (40 mM HEPES, pH 7.4) for 24 h. Aliquots were dispensed into a 96-well plate, and compounds were added at a 10 µM concentration. […] The OD600 of the samples was measured to assess regrowth using a microplate reader (BioTek Synergy H1) after 6 h for UPEC and 8 h for P. aeruginosa and S. aureus. […]

non-growing UPEC CFT073 = experiment: Time-dependent effects of drug treatment on regrowth, UPEC; format: cell-based, Escherichia coli; settings: E. coli, 10 µM, OD600 6 h after dilution
Experimental: as §1, §2, §3

For `C=C[C@]1(C)C[C@@H](OC(=O)CSC(C)(C)CNC(=O)[C@H](N)C(C)C)[C@]2(C)[C@H](C)CC[C@]3(CCC(=O)[C@H]32)[C@@H](C)[C@@H]1O` [Valnemulin], the “toxicity to TC7 epithelial cells” value (TC7 cells) was “toxic”.

In the case of `N[C@@H]1[C@H]2CN(c3nc4c(cc3F)c(=O)c(C(=O)O)cn4-c3ccc(F)cc3F)C[C@@H]12` [Trovafloxacin], the “speed of action: regrowth delay over treatment time” value (from here on “speed … over treatment time”) [1] is reported as “act more slowly”.

In the case of Plicamycin, the “induction of the SOS response in growing UPEC cultures” value (“induction of the SOS response” for short) [2] is reported as “not detected” and the “growth inhibition of growing UPEC” value [2] is reported as “only a slight growth inhibition”.

In the case of `CS[C@H]1SC[C@H]2C(=O)N(C)[C@@H](C(C)C)C(=O)OC[C@@H](NC(=O)c3cnc4ccccc4n3)C(=O)N[C@@H](C)C(=O)N(C)[C@@H]1C(=O)N(C)[C@@H](C(C)C)C(=O)OC[C@@H](NC(=O)c1cnc3ccccc3n1)C(=O)N[C@@H](C)C(=O)N2C` [Echinomycin], the “induction of the SOS response” value [2] is reported as “induced the SOS response”.

In the case of `C[C@@H]1CN(c2c(F)c(N)c3c(=O)c(C(=O)O)cn(C4CC4)c3c2F)C[C@H](C)N1` [Sparfloxacin], the “speed … over treatment time” value [1] is reported as “act more slowly”.

In the case of Bleomycin, the “induction of the SOS response” value [2] is reported as “induced the SOS response”.

`CC1COc2c(N3CCN(C)CC3)c(F)cc3c(=O)c(C(=O)O)cn1c23` (stereo not shown) [Ofloxacin] was tested, and the “SOS induction during recovery of treated non-growing UPEC” value ([2]; 10 μM, 24 h, then washed and diluted in CA-MHB, single control experiment) was “SOS induction during recovery”.

In the case of `CO[C@H]1/C=C/O[C@@]2(C)Oc3c(C)c(O)c4c(O)c(c(/C=N/N5CCN(C)CC5)c(O)c4c3C2=O)NC(=O)/C(C)=C\C=C\[C@H](C)[C@H](O)[C@@H](C)[C@@H](O)[C@@H](C)[C@H](OC(C)=O)[C@@H]1C` [Rifampicin], the “speed … over treatment time” value (non-growing S. aureus) is reported as “acts quickly”.

For `CCCCC(CC)CNC(=N)NC(=N)NCCCCCCNC(=N)NC(=N)NCC(CC)CCCC` (stereo not shown) [Alexidine], the “toxicity to TC7 epithelial cells” value (TC7 cells) was “toxic”.

For `Cn1c(COP(=O)(NCCBr)NCCBr)cnc1[N+](=O)[O-]` [Evofosfamide], the “induction of the SOS response” value [2] was “induced the SOS response” and the “growth inhibition of growing UPEC” value [2] was “only a slight growth inhibition”.

For `C[C@H]1NCc2cc(-c3ccc4c(=O)c(C(=O)O)cn(C5CC5)c4c3OC(F)F)ccc21` [Garenoxacin], the “speed … over treatment time” value (non-growing UPEC CFT073) was “act more slowly”.

`CO[C@@]12[C@H](COC(N)=O)C3=C(C(=O)C(C)=C(N)C3=O)N1C[C@@H]1N[C@@H]12` [Mitomycin C] was tested, and the “induction of the SOS response” value [2] was “induced the SOS response”.

For `CN1CCN(c2cc3c(cc2F)c(=O)c(C(=O)O)cn3-c2ccc(F)cc2)CC1` [Difloxacin], the “speed … over treatment time” value [1] was “act more slowly”.

For `CC(=O)[O][Pt]([NH2])([Cl])([Cl])([NH]C1CCCCC1)[O]C(C)=O` [Satraplatin], the “speed … over treatment time” value [1] was “act more slowly”, the “induction of the SOS response” value [2] was “induced the SOS response” and the “growth inhibition of growing UPEC” value [2] was “only a slight growth inhibition”. The “toxicity to TC7 epithelial cells” value (TC7 cells) was “toxic”.
